Where two headings read alike, the source gives them in different places.
System: M. mycetomatis genome strain MM55
Assay: CLSI M38-A2 based in vitro susceptibility screening (XTT or resazurin), growth at fixed concentration
Type: cell-based, Madurella mycetomatis
Conditions: Madurella mycetomatis; for Percent fungal survival at 100 µM: replicate 2, read-out: Percentage survival at 100um, 100 uM A (second replicate column)
[1] = mean of three replicates, read-out: Percentage survival at 25um, 25 uM mean
[2] = replicate A, read-out: Percentage survival at 25um, 25 um A
[3] = replicate B, read-out: Percentage survival at 25um, 25 uM B
[4] = replicate C, read-out: Percentage survival at 25um, 25 uM C
[5] = first replicate column, read-out: Percentage survival at 100um, 100 uM A
[6] = mean of three replicates, read-out: Percentage survival at 100um, 100 uM mean
[7] = second replicate column, read-out: Percentage survival at 100um, 100 uM A
[8] = third replicate column, read-out: Percentage survival at 100um, 100 uM A
[9] = mean, read-out: Percentage survival at 25um, 25 uM mean
[10] = mean, read-out: Percentage survival at 100um, 100 uM mean
[11] = replicate (first column), read-out: Percentage survival at 100um, 100 uM A
[12] = replicate (second column), read-out: Percentage survival at 100um, 100 uM A
[13] = replicate (third column), read-out: Percentage survival at 100um, 100 uM A
[14] = mean of replicates, MM55, read-out: Percentage survival at 25um, 25 uM mean
[15] = replicate A, MM55, read-out: Percentage survival at 25um, 25 um A
[16] = replicate B, MM55, read-out: Percentage survival at 25um, 25 uM B
[17] = replicate C, MM55, read-out: Percentage survival at 25um, 25 uM C
[18] = mean of replicates, MM55, read-out: Percentage survival at 100um, 100 uM mean
[19] = replicate 1, MM55, read-out: Percentage survival at 100um, 100 uM A
[20] = replicate 2, MM55, read-out: Percentage survival at 100um, 100 uM A
[21] = replicate 3, MM55, read-out: Percentage survival at 100um, 100 uM A
[22] = replicate 1, read-out: Percentage survival at 100um, 100 uM A (first replicate column)
[23] = replicate 3, read-out: Percentage survival at 100um, 100 uM A (third replicate column)

O=c1oc2ccc(Br)cc2cc1CSc1ncc[nH]1 [MMV1782105]
activity at 25 µM [1]: 79.9%
activity at 25 µM [2]: 77.1%
activity at 25 µM [3]: 83.9%
activity at 25 µM [4]: 78.6%
activity at 100 µM [5]: 62.8%
activity at 100 µM [6]: 63.6%
activity at 100 µM [7]: 59.4%
activity at 100 µM [8]: 68.5%

CCc1cc(CCC(=O)Nc2ccccc2O)c(=O)[nH]c1C [MMV1782106]
activity at 25 µM [1]: 91.9%
activity at 25 µM [2]: 84.9%
activity at 25 µM [3]: 85.4%
activity at 25 µM [4]: 105%
activity at 100 µM [5]: 83.7%
activity at 100 µM [6]: 83.9%
activity at 100 µM [7]: 82.9%
activity at 100 µM [8]: 85.1%

O=c1[nH]c(=O)n(Cc2cccc(Oc3ccccc3)c2)cc1Nc1ccccc1 [MMV1782107]
activity at 25 µM [1]: 91.7%
activity at 25 µM [2]: 75.5%
activity at 25 µM [3]: 83.9%
activity at 25 µM [4]: 116%
activity at 100 µM [5]: 90.6%
activity at 100 µM [6]: 71.8%
activity at 100 µM [7]: 77.9%
activity at 100 µM [8]: 47.1%

CCCCc1ccc(S(=O)(=O)Nc2cc(C)on2)cc1 [MMV1782108]
activity at 25 µM [9]: 86.1%
activity at 25 µM [2]: 90.5%
activity at 25 µM [3]: 80.2%
activity at 25 µM [4]: 87.6%
activity at 100 µM [10]: 82.9%
activity at 100 µM [11]: 79.8%
activity at 100 µM [12]: 82.7%
activity at 100 µM [13]: 86.3%

O=C(N[C@H](Cc1cccc2ccccc12)C(=O)NCCc1c[nH]cn1)C1Cc2ccccc2C1 [MMV1782109]
activity at 25 µM [9]: 80.7%
activity at 25 µM [2]: 88.1%
activity at 25 µM [3]: 81.3%
activity at 25 µM [4]: 72.6%
activity at 100 µM [10]: 67%
activity at 100 µM [11]: 69.9%
activity at 100 µM [12]: 67.6%
activity at 100 µM [13]: 63.4%

O=C(CCc1ccc2c(c1)OCO2)NCc1ccc(-c2ccccc2F)cc1 [MMV1782110]
activity at 25 µM [9]: 78.7%
activity at 25 µM [2]: 102%
activity at 25 µM [3]: 62.1%
activity at 25 µM [4]: 71.9%
activity at 100 µM [10]: 77.4%
activity at 100 µM [11]: 79%
activity at 100 µM [12]: 73.6%
activity at 100 µM [13]: 79.5%

CC(C)C(=O)N[C@H]1[C@H]([C@H](O)[C@H](O)CO)OC(C(=O)O)=C[C@@H]1N=[N+]=[N-] [MMV1782111]
activity at 25 µM [14]: 95.4%
activity at 25 µM [15]: 71.1%
activity at 25 µM [16]: 133%
activity at 25 µM [17]: 82.3%
activity at 100 µM [18]: 57.6%
activity at 100 µM [19]: 71%
activity at 100 µM [20]: 27.4%
activity at 100 µM [21]: 74.4%

CCOC(=O)/C=C/[C@H](C[C@@H]1CCNC1=O)NC(=O)[C@H](CC)n1cccc(NC(=O)c2cc(C)on2)c1=O [MMV1782112]
activity at 25 µM [1]: 92.1%
activity at 25 µM [2]: 76.9%
activity at 25 µM [3]: 89.6%
activity at 25 µM [4]: 110%
activity at 100 µM [5]: 81.9%
activity at 100 µM [6]: 68.4%
activity at 100 µM [7]: 76.6%
activity at 100 µM [8]: 46.5%

CCCC1(C2CC2)c2cc(Cl)ccc2NC(=O)N1C (stereo not drawn) [MMV1782113]
activity at 25 µM [14]: 68.5%
activity at 25 µM [15]: 67.5%
activity at 25 µM [16]: 76.8%
activity at 25 µM [17]: 61.2%
activity at 100 µM [18]: 56.1%
activity at 100 µM [19]: 52.9%
activity at 100 µM [20]: 56.4%
activity at 100 µM [21]: 58.9%

O=C(NN1C(=O)[C@@H]2C3C=CC([C@H]4C[C@@H]34)[C@@H]2C1=O)c1ccc(C(F)(F)F)cc1 [MMV1782114]
activity at 25 µM [1]: 90.1%
activity at 25 µM [2]: 95.2%
activity at 25 µM [3]: 94.5%
activity at 25 µM [4]: 80.6%
activity at 100 µM [6]: 84.5%
activity at 100 µM [22]: 90%
Percent fungal survival at 100 µM: 78.4%
activity at 100 µM [23]: 85%

COc1ccc2sc3c(c2c1)NC(C)CNC3=O (stereo not drawn) [MMV1782115]
activity at 25 µM [1]: 53.1%
activity at 25 µM [2]: 57.6%
activity at 25 µM [3]: 74.6%
activity at 25 µM [4]: 27.1%
activity at 100 µM [6]: -0.834%
activity at 100 µM [22]: -3.17%
Percent fungal survival at 100 µM: -0.401%
activity at 100 µM [23]: 1.07%

CN1C(=O)C(c2ccccc2)C(=O)N(c2ccccc2)c2cc(C(F)(F)F)ccc21 (stereo not drawn) [MMV1782208]
activity at 25 µM [14]: 99.7%
activity at 25 µM [15]: 120%
activity at 25 µM [16]: 99.1%
activity at 25 µM [17]: 80.3%
activity at 100 µM [18]: 90.1%
activity at 100 µM [19]: 94.2%
activity at 100 µM [20]: 97.9%
activity at 100 µM [21]: 78.1%

From article PMC8815882, “Screening the pandemic response box identified benzimidazole carbamates, Olorofim and ravuconazole as promising drug candidates for the treatment of eumycetoma” (PLoS Neglected Tropical Diseases, 2022)
